Results published in patent US9028845B2, “Chimeric immunomodulatory compounds and methods of using the same-IV” (Dynavax Technologies Corporation, priority 2001, dated 2015).
Strand notation (5' to 3'): a small letter for the sugar, then the base; units joined by * are phosphorothioate-linked, units joined directly phosphodiester-linked; [ ] holds rarer units or linkages, { } end groups; capitals alone tell only the bases. d = 2'-deoxy (DNA)

Assays:
PBMCs = assay: Human PBMC proliferation assay (3H-thymidine incorporation); format: cell-based; details: Experiment A; for mean cpm: 2 μg/ml
mouse splenocytes = assay: Mouse splenocyte cytokine secretion (IL-6, IL-12, IFN by ELISA); format: cell-based, BALB/c mice; parameters: IFN: unit not given beside the values; details: 24 h
Description: Polynucleotides and chimeric compounds were tested for immunostimulatory activity on mouse splenocytes. Immunostimulation was assessed by measurement of cytokine secretion into the culture media. Cytokine levels in the culture supernatant were determined by enzyme-linked immunosorbent assay (ELISA) tests.
Cells were isolated and prepared using standard techniques. Spleens of 8 to 20 week-old BALB/c mice were harvested and the splenocytes isolated using standard teasing and treatment with ACK lysing buffer from BioWhittaker, Inc. Four spleens were pooled in this experiment. Isolated cells were washed in RPMI 1640 media supplemented with 2% heat-inactivated fetal calf serum (FCS), 50 μM 2-mercaptoethanol, 1% penicillin-streptomycin, and 2 mM L-glutamine and resuspended at approximately […] in 10% FCS/RPMI (RPMI 1640 media with 10% heat-inactivated FCS, 50 μM 2-mercaptoethanol, 1% penicillin-streptomycin, and 2 mM L-glutamine).
Cell cultures were set up in triplicate with approximately 7×10^5 cells/well in a 96-well flat microtiter plate in 100 μl 10% FCS/RPMI with the cells allowed to rest for at lest 1 hour after plating. The indicated test compounds were incubated (at the indicated concentrations) for 24 hours at 37° C. Cell supernatants were harvested and frozen at −80° C. Cytokine production by the cells was determined by ELISAs, as shown in 19.

CD19+ B cells = assay: Human B cell proliferation assay (3H-thymidine incorporation); details: 2 μg/ml; for cpm1 / cpm2 / cpm3 / mean cpm / mean of both: B cells
Description: Purified human B cells from 2 donors were stimulated with 5 μg/ml P-6 or CIC for 96 h. Proliferation was assessed by ^3H-thymidine incorporation.
A CIC is considered to induce “little” human B cell proliferation if B cell proliferation in the presence of the CIC is between greater than 15 to about 30% of P-6.
Human PBMCs were isolated from heparanized blood from two normal subjects. Some PBMCs were held in reserve while the remainder was incubated with CD19+ MACS beads (Miltenyi Biotec). These cells were then passed through a magnet, separating the CD19+ B cells through positive selection. […] B cells were then cultured at 1×10^5/200 μl/well in 96-well round-bottomed plates. In some cases, PBMCs were also cultured, but at 2×10^5/200 μl/well. Cells were stimulated in triplicate with 2 μg/ml polynucleotide or CIC. The culture period was 48 hours at 37° C. At the end of the culture period, the plates were pulsed with ^3H-thymidine, 1 μCi/well, and incubated for an additional 8 hours. Then the plates were harvested using standard liquid scintillation techniques and data was collected in counts per minutes (cpm).

## 5′-TGACTGTGAACCTTAGAGATGA-3′ (SEQ ID NO: 3) (dT*dG*dA*dC*dT*dG*dT*dG*dA*dA*dC*dC*dT*dT*dA*dG*dA*dG*dA*dT*dG*dA) [Compound P-7, reference compound]
PBMCs; Donor 146, 2 μg/ml
  cpm1: 7620 cpm
  cpm2: 8362 cpm
  cpm3: 9686 cpm
PBMCs; Donor 146 mean
  mean cpm: 8556 cpm
PBMCs; Donor 147, 2 μg/ml
  cpm1: 9783 cpm
  cpm2: 9841 cpm
  cpm3: 10476 cpm
PBMCs; Donor 147 mean
  mean cpm: 10033 cpm
PBMCs; mean of Donors 146 and 147, 2 μg/ml
  mean of both: 9295 cpm
Mouse splenocytes; dose 1.0 μg/ml
  IFN: 30
  IL-6: 7
  IL-12: 143
Mouse splenocytes; dose 5.0 μg/ml
  IFN: 23
  IL-6: 9
  IL-12: 177
CD19+ B cells; 48 h plus 8 h 3H-thymidine pulse
  B cell proliferation, in words: little to no B cell proliferation
CD19+ B cells; Donor 146, Experiment A
  cpm1: 4858 cpm
  cpm2: 5810 cpm
  cpm3: 7079 cpm
CD19+ B cells; Donor 146 mean, Experiment A
  mean cpm: 5916 cpm
CD19+ B cells; Donor 147, Experiment A
  cpm1: 4364 cpm
  cpm2: 4066 cpm
  cpm3: 2774 cpm
CD19+ B cells; Donor 147 mean, Experiment A
  mean cpm: 3735 cpm
CD19+ B cells; donor 121, Experiment B
  cpm1: 1623 cpm
  cpm2: 1821 cpm
  cpm3: 2901 cpm
CD19+ B cells; donor 121 mean, Experiment B
  mean cpm: 2115 cpm
CD19+ B cells; donor 194, Experiment B
  cpm1: 1992 cpm
  cpm2: 1593 cpm
  cpm3: 1686 cpm
CD19+ B cells; donor 194 mean, Experiment B
  mean cpm: 1757 cpm
CD19+ B cells; mean of Donors 146 and 147, Experiment A
  mean of both: 4825 cpm
CD19+ B cells; mean of donors 121 and 194, Experiment B
  mean of both: 1936 cpm
